Measured values published in patent publication US8021658B2, “Alternative splice forms of proteins as basis for multiple therapeutic modalities” (Thomas Jefferson University, priority 2001, dated 2011).
Bridges are numbered along the chain shown (N, C = ends). Roman numbers before positions name the chains, in order. Where no end group is shown, it is not given here.

Columns and labels:
[1] = system: HC2 20d2/c tumor cells; assay: Regression of HC2 20d2/c tumors in mice vaccinated with VEGF peptides; format: in vivo; details: FIG. 2; for tumor regression (average tumor volume vs. time): mice injected with HC2 20d2/c tumor cells, vaccinated four days post-injection with peptide plus murine GM-CSF; for reduction in average tumor volume: by the end of the study
Experimental: The VEGF peptides and the SEQ ID NO: 85 homodimer were evaluated for their ability to elicit an anti-tumor immune response in a mouse tumor model. A total of 112 syngeneic mice were divided into eight treatment groups of 14 mice each, and injected with HC2 20d2/c tumor cells. Four days post-injection, the first through fifth treatment groups were vaccinated in the left inguinal area with 100 μg of either SEQ ID NO: 73, SEQ ID NO: 75, SEQ ID NO: 77, SEQ ID NO: 79, or the SEQ ID NO: 81 dimer diluted in 100 μl of PBS mixed with 45 ng of murine GM-CSF as an adjuvant. The total volume of phosphate buffered saline (PBS) was 150 microliters with 2 mg/ml mouse serum albumin as a carrier. The sixth treatment group was vaccinated as above with a combination of all four VEGF peptides and the SEQ ID NO: 81 homodimer (60 μg each) in a total of 200 microliters of PBS with 45 ng of murine GM-CSF and 2 mg/ml mouse serum albumin. The seventh treatment group was vaccinated as above with 100 μg of a peptide derived from a mutant epidermal growth factor receptor (EGFR) protein called EGFRvIII (SEQ ID NO: 82). The vaccine composition also contained 45 ng of murine GM-CSF and 2 mg/ml mouse serum albumin. The EGFRvIII mutation is the result of a genomic rearrangement in the EGFR gene, and the EGFRvIII peptide (SEQ ID NO: 82) is reported to induce an immune response against tumor cells expressing the mutant receptor. The eighth treatment group was vaccinated with GM-CSF and 2 mg/ml mouse serum albumin in PBS with no peptide, as a control. All treatment groups were then injected once daily for the next 3 days with the 45 ng GM-CSF in the original area of vaccination.

[2] = system: HC2 20d2/c tumor cells pulsed with the immunizing peptide; assay: ELISPOT assay (anti-interferon-gamma) of cytotoxic T lymphocyte activity of splenocytes from immunized mice; format: cell-based; details: FIG. 5; for CTL response compared with mouse treated with SEQ ID NO: 82 (EGFRvIII): mice which had undergone tumor regression
Experimental: Briefly, the ELISPOT method is performed by coating a cell culture dish or well with a cytokine capture antibody, for example an anti-interferon gamma antibody. The unoccupied spots on the culture dish or well are then blocked with a non-specific binding protein. Target cells, for example tumor cells, that endogenously synthesize the alternative splice form which has been used to stimulate PBLs are added to the culture dish or well. Alternatively, target cells can be pulsed with the peptide of interest. Activated PBLs are then added to the culture dish or well. If the activated PBLs specifically lyse the target cells, the PBLs secrete cytokines such as interferon-gamma, which is captured by the cytokine capture antibody initially coated onto the culture dish or well. A secondary antibody that recognized a different epitope of interferon gamma is then used to detect the presence of any interferon-gamma secreted by the PBLs and captured by the cytokine capture antibody. The secondary antibody can be conjugated with a detectable label, such as fluorescent or radioactive label. Identification of peptides of the invention which induce MHC-restricted cytotoxic T lymphocyte responses by the ELISPOT method is shown in Example 5 below.
Splenocytes from mice inoculated with GM-CSF only were used as a control (“control”). HC2 20d2/c tumor cells pulsed with 10 micrograms/ml of the immunizing peptide, or mouse serum albumin (for splenocytes from GM-CSF only treated animals) were used as the target cells for the treatment and control splenocytes, respectively. Untreated HC2 20d2/c tumor cells were used as negative control target cells.
The splenocytes were incubated at various ratios (from 10:1 to 2:1) with target cells in triplicate, and lytic events were identified with an ELISPOT assay using anti-interferon-gamma antibody as the cytokine capture antibody. The specific spots per 10^6 cells were quantitated using the lytic events from untreated target cells as the background, and then performing linear regression analysis.

[3] = splenocytes of immunized mice which had undergone tumor regression, target cells pulsed with the vaccinating peptide

Substance | tumor regression (average tumor volume vs. time) [1] | CTL response compared with mouse treated with SEQ ID NO: 82 (EGFRvIII) [2] | CTL response (ELISPOT) [2, 3] | CTL response (ELISPOT) ([2]; splenocytes of vaccinated mouse which had not undergone tumor regression) | reduction in average tumor volume ([1]; HC2 20d2/c tumor model) | tumor progression ([1]; HC2 20d2/c tumor model) | duration of initial tumor progression ([1]; HC2 20d2/c tumor model, after vaccination) | time until which regression is seen ([1]; HC2 20d2/c tumor model) [days after vaccination] | time at which tumor regression is most notable ([1]; HC2 20d2/c tumor model) [days after vaccination] | tumor progression ([1]; HC2 20d2/c tumor model, listed as SEQ ID NO: 81)
R T K P E K C D K P R R (RTKPEKCDKPRR; VEGF alt splice #1) [SEQ ID NO: 73, peptide encoded by alternatively spliced mouse VEGF mRNA] | pattern of regression similar to that found for the EGFRvIII peptide | greater than that seen for the mouse treated with SEQ ID NO: 82 | strong CTL responses | poor CTL responses | – | – | – | – | – | –
L E R S E S C E D R C P (LERSESCEDRCP; VEGFD alt splice #2 peptide) [SEQ ID NO: 79, peptide encoded by alternatively spliced murine VEGFD mRNA] | – | – | – | – | strong reduction in average tumor volumes | – | – | – | – | –
SEQ ID NO: 82: peptide derived from a mutant epidermal growth factor receptor (EGFR) protein called EGFRvIII (LEEKKGNYVVTDHC; EGFRvIII peptide) [reference compound] | distinct regression noted thereafter | – | – | – | – | progression was not as dramatic as the control mice | approximately 5 days | – | – | –
V V K Q L V Q T P P L P P (VVKQLVQTPPLPP; VEGFB alt splice #1 peptide) [SEQ ID NO: 75, peptide encoded by alternatively spliced murine VEGFB mRNA] | – | greater than that seen for the mouse treated with SEQ ID NO: 82 | strong CTL responses | – | – | progress from that point onward | – | ~20 | – | –
RTKPEKCDKPRRC (disulfide I:13-II:13; cysteine pairing not given here) [SEQ ID NO: 81 homodimer] | induce tumor regression to some degree | – | – | – | strong reduction in average tumor volumes | initially shows tumor progression | – | ~20 | 12 | progress from that point onward
